Laboratory results reported in paper PMC9961069 (Metabolites, 2023).
Entries after “also recorded” stand apart in the source; their conditions may differ.

Key:
[1] = system: T1, DHFR in MDA-MB-468 cells; test: DHFR accumulation assay (Western blot); format: cell-based, Human; details: for Fold increase in DHFR levels: 24 h
T1 construct: reactions containing 55 μg MDA-MB-468 lysate; endogenous in cells; host or cells: MDA-MB-468
Experimental: Trypsinized MDA-MB-468 cells were seeded into 6-well plates at a density of 300,000 cells per 2 mL of media and allowed to adhere for 24 h. […] The final concentration of DMSO in each well was 1%. A DMSO-only control was also performed on each individual plate. Cells were then trypsinized, harvested by centrifugation at 200× g for 5 min at 4 °C, and washed once with PBS/PIC. Cell pellets were flash frozen using an ethanol/dry ice bath and stored at −80 °C prior to lysis. Each cell pellet was lysed as described above using 50 μL PBS/PIC per cell pellet. Samples were then analyzed by Western blot, as described below, using 30 μg lysate per lane. Band intensities of DHFR were normalized to the loading control SOD1 via densitometry using ImageJ (Fiji), and each DHFR band was normalized to the DMSO control. Fold-change in DHFR band intensity was plotted against inhibitor concentration (μM). Each experiment was performed two separate times as individual biological replicates (n = 2).
Proteins were electrophoretically separated on a 10% gel, and proteins were transferred to a methanol-activated PVDF membrane using the Trans-Blot Turbo transfer system (Bio-Rad) for 7 min at 1.3 A and 25 V in Trans-Blot Turbo transfer buffer (Bio-Rad). Membranes were blocked with 5% skim milk w/v in TBS-T (20 mM Tris, 150 mM NaCl, 0.05% Tween-20) for 1 h at room temperature. […] The horseradish peroxidase (HRP)-linked anti-mouse IgG secondary antibody (NA931, Cytiva; 1:3000) was added for 1 h at room temperature in 5% skim milk w/v in TBS-T. Signal was detected by adding Immobilon Forte Western HRP Substrate (Millipore), and chemiluminescence was captured on a Sapphire Biomolecular Imager (Azure Biosystems). Band densities were determined using ImageJ (Fiji). The band intensity of DHFR was normalized to the thermostable loading control SOD1 [22].

[2] = system: MDA-MB-231 cells; test: LC/MS-based metabolite profiling; format: cell-based, Human; details: 24 h; for AICAR levels with FA treatment / Orotate levels with FA supplementation: 10 μM + 300 μg/mL FA; for AICAR levels / Orotate levels / UDP level: 10 μM; for AICAR levels / Orotate levels: inhibitor alone; for UDP level: inhibitor alone versus DMSO
Experimental: For characterization by mass spectrometry, MDA-MB-231 cells were seeded at a density of 3 × 10^5 cells per well in 6-well plates. […] DMSO only and DMSO + folinic acid controls were also performed. Per condition, biological quadruplicates of approximately one million cells were harvested, washed briefly with 1 mL of 0.9% NaCl (prepared in LC/MS-grade water Fisher Scientific W6500), and extracted in 500 μL prechilled extraction buffer (80% LC/MS-grade methanol, 20% 125 mM ammonium acetate, 12.5 mM sodium ascorbate prepared in LC/MS-grade water and supplemented with aminopterin (catalog no.: 16.330; Schircks Laboratories) and isotopically labeled internal standards (17 amino acids and reduced glutathione [Cambridge Isotope Laboratories; MSK- A2-1.2 and CNLM-6245-10])) using a cell scraper. After centrifugation for 10 min, 4 °C, at maximum speed on a benchtop centrifuge (Eppendorf), the cleared supernatant was transferred to a new tube and dried using a nitrogen dryer (Reacti-Vap™ Evaporator, Thermo Fisher Scientific, TS-18826) while on ice. Once the drying process was completed, samples were reconstituted in 50 µL QReSS water (Cambridge Isotope Laboratories, MSK-QRESS-KIT) by brief sonication in a 4 °C water bath. Extracted metabolites were spun for 3 min, 4 °C, at maximum speed on a bench-top centrifuge, and cleared supernatant was transferred to LC/MS microvials (National Scientific, C5000-45B). Three microliters of each sample were pooled and serially diluted 3- and 10-fold to be used as quality controls throughout the run of each batch. Unlabeled QReSS metabolites (Cambridge Isotope Laboratories, MSK-QReSS-US-KIT) and unlabeled amino acid mix standard (Cambridge Isotope Laboratories, MSK-A2-US-1.2) were also included in the run to ensure high-quality metabolomics results.
One microliter (equivalent to 2 × 10^4 cells) of the reconstituted sample was injected into a ZIC-pHILIC 150 × 2.1 mm (5 µm particle size) column (EMD Millipore) operated on a Vanquish™ Flex UHPLC Systems (Thermo Fisher Scientific, San Jose, CA, USA). Chromatographic separation was achieved using the following conditions: buffer A was acetonitrile; buffer B was 20 mM ammonium carbonate, 0.1% ammonium hydroxide. Gradient conditions were: linear gradient from 20% to 80% B; 20–20.5 min: from 80% to 20% B; 20.5–28 min: hold at 20% B. The column oven and autosampler tray were held at 25 °C and 4 °C, respectively.
Mass spectrometry data acquisition was performed using a QExactive benchtop orbitrap mass spectrometer equipped with an Ion Max source and a HESI II probe (Thermo Fisher Scientific, San Jose, CA, USA) and was performed in positive and negative ionization mode in a range of m/z = 70–1000, with the resolution set at 70,000, the AGC target at 1 × 10^6, and the maximum injection time (Max IT) at 20 msec. For nucleotide tSIM scans, the resolution was set at 70,000, the AGC target was 1 × 10^5, and the max IT was 100 msec.
Manual curation and integration of chromatographic peaks were performed with TraceFinder 4.1 (Thermo Fisher Scientific, Waltham, MA, USA) using a 5 ppm mass tolerance and referencing an in-house library of chemical standards. Data from TraceFinder were further consolidated and normalized with an in-house R script: (https://github.com/FrozenGas/KanarekLabTraceFinderRScripts/blob/main/MS_data_script_v2.4_20221018.R (accessed on 22 November 2022)). Briefly, this script performs normalization and quality control steps: (1) extracts and combines the peak areas from TraceFinder output .csvs; (2) calculates and normalizes to an averaged factor from all mean-centered chromatographic peak areas of isotopically labeled amino acids internal standards within each sample; (3) filters out low-quality metabolites based on user inputted cut-offs calculated from pool reinjections and pool dilutions; (4) calculates and normalizes for biological material amounts based on the total integrated peak area values of high-confidence metabolites. […]

[3] = system: STAT3 transcriptional activity in U3A STAT3 luciferase reporter cell line; test: STAT3 luciferase reporter assay; format: cell-based; details: for Inhibition of STAT3-dependent luciferase activity: 0.02–20 μM, OSM 10 ng/mL
Experimental: The STAT3-dependent luciferase reporter assay was performed as previously reported. One day prior to the assay, the U3A STAT3 luciferase reporter cell line was seeded in a 96-well plate at 8000 cells per well. Cells were then incubated with compounds at the indicated concentration, and each well was treated with either media control or stimulated with 10 ng/mL oncostatin M (OSM) and incubated for six hours at 37 °C. Luciferase activity was quantified using the Bright-Glo Luciferase Assay system (Promega) and a Luminoskan Ascent Luminometer (Labsystems). Collected luminescence readings were normalized to DMSO-treated controls. Stimulation with (+OSM) gave luminescence values around 2.5 times that of the unstimulated control (−OSM). Quadruplicates were averaged and plotted with error bars representing standard deviation. Each condition was performed in quadruplicate on two separate occasions (n = 2) with representative data shown. Statistical significance was determined using Ordinary one-way ANOVA with a Dunnett multiple comparison test.

| SMILES | DHFR accumulation ([1]; MDA-MB-468, 24 h) | AICAR levels with FA treatment [2] | Orotate levels with FA supplementation [2] | AICAR levels [2] | Orotate levels [2] | UDP level [2] | STAT3-dependent luciferase activity ([3]; 20 nM, U3A) | Inhibition of STAT3-dependent luciferase activity [3] | Fold increase in DHFR levels ([1]; MDA-MB-468, 10 nM) [fold] | Fold increase in DHFR levels ([1]; MDA-MB-468, 1 µM) [fold] | Concentration giving notable accumulation of DHFR ([1]; MDA-MB-468, 24 h, range 0.012–1 nM) [nM] |
| --- | --- | --- | --- | --- | --- | --- | --- | --- | --- | --- | --- |
| CC1(C)N=C(N)N=C(N)N1c1ccc(Cl)cc1 [Cyc, Cycloguanil] | required higher concentrations to induce DHFR accumulation; also recorded: failed to induce DHFR accumulation at low nM concentrations | returned AICAR to the same levels as vehicle controls | returned orotate to vehicle control levels | much larger increases in AICAR | decreased or statistically insignificant changes in orotate levels | significantly depleted | significantly inhibited | potent inhibition of luciferase activity | – | – | – |
| CCc1nc(N)nc(N)c1-c1ccc(Cl)cc1 [Pyr, Pyrimethamine] | required higher concentrations to induce DHFR accumulation | returned AICAR to the same levels as vehicle controls | returned orotate to vehicle control levels | much larger increases in AICAR | decreased or statistically insignificant changes in orotate levels | significantly depleted | – | do not reach full STAT3 inhibition until µM concentrations | – | – | – |
| CC1(C)N=C(N)N=C(N)N1c1ccc(CCCCc2ccc(S(=O)(=O)F)cc2)c(Cl)c1 [compound 127159] | – | further increased AICAR | orotate remained elevated in the presence of FA | increased slightly, yet significantly | stark increase in orotate levels | not upon treatment with MTX and 127159 alone | – | do not reach full STAT3 inhibition until µM concentrations | 10 | 30 | 0.33 |
